Broadly, the melting point is the temperature, or range, at which the solid turns liquid.

In data set [1] the target is T1, human Kv4.3/KChIP2.2 potassium channel (Homo sapiens, UniProt Q9UK17).
T1 construct: expressed in transfected cells
T1 sequence (Q9UK17 1-655): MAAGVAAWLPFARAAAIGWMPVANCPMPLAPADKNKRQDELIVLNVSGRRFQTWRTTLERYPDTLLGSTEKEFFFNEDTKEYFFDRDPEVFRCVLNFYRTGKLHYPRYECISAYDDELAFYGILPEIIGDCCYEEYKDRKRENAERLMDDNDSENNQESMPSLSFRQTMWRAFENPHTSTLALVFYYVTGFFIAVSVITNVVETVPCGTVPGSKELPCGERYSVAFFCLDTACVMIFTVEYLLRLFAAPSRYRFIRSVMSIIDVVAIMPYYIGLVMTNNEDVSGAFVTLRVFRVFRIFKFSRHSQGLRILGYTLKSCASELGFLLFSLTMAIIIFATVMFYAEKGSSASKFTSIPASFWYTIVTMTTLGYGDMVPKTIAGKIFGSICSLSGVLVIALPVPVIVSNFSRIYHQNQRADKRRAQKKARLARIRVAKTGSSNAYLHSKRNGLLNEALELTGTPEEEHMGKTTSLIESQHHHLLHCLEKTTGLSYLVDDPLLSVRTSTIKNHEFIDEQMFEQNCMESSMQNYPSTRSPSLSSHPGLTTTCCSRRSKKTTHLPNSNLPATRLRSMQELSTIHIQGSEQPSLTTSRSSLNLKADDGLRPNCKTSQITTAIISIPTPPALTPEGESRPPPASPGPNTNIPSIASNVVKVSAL
The data set can be described thus: Whole cell patch clamp, CHO-K1 cells stably expressing human Kv4.3/KChIP2.2. Format: cell-based. The note with it: CHO-K1. How it is done:
For this experiment, a recombinant CHO-K1 cell line stably expressing the human Kv4.3/KChIP2.2 potassium channel was used. The cells used for this experiment were kept in continuous culture under standard conditions (37° C., air supplemented with 7% CO2). The CHO-K1 Kv4.3/KChIP2.2 cells were kept in Iscove s modified DMEM (Dulbecco's Modified Eagle's Medium) medium (IMEM) supplemented with 100 U/ml Penicillin, 100 μg/ml Streptomycin, 7% fetal calf serum (FCS), 2.5 μg/ml amphotericin, 400 μg/ml G418, and 400 μg/ml Zeocin™. Cells were passed every 3-4 days after detachment using a Trypsin solution. The quality of the cultured cells was guaranteed by vitality and contamination tests. The culture of the cells was performed as described in protocol D hereunder.
10 mM stock solutions of the compounds were prepared in DMSO. Solutions of the compounds were prepared by dilution of stock solution in bath solution. If the required stock solution volume was theoretically below 1 μl, bath solutions with higher compound concentration were used for dilution. The maximal DMSO concentration during experiments was 0.1% (v/v).
Activity of the human Kv4.3/KChIP2.2 channel was investigated using the patch clamp technique in its whole cell mode. This means that the current needed for clamping the whole cell expressing the K^+-channel protein to a specific potential was measured. Experiments were performed using a patch clamp set-up. Technical equipment needed for manipulation of the cells was placed on a vibration-isolated table and shielded with a Faraday cage to minimize electrical noise. The amplifier and control system were placed in a rack outside the Faraday cage. The system consisted of an EPC9 or EPC10 patch clamp amplifier (HEKA, Lambrecht, Germany), and the perfusion system DADVC8 (ALA Scientific, New York, USA) controlled by the Pulse software package (HEKA, Lambrecht, Germany) installed on a personal computer. The pipettes used for patch clamping were made of borosilicate glass.
Measurements were performed at room temperature (20-25° C.). In each experiment (i.e. each cell) only one concentration of the compounds was investigated no cumulative dosages were performed. Each cell acted as its own control. […]
Between voltage pulses the cell was clamped to a holding potential of −80 mV (inside). The test protocols are illustrated in FIG. 1 and Table 4. The test protocol illustrated in FIG. 1a was used to characterize the properties of the Kv4.3/KChIP2.2 channel and to check the quality of the individual patch clamp experiment (voltage control). […] Each test protocol consisted of 4 segments.
After the whole cell configuration was established a current-voltage curve (IV activation 1; FIG. 1a and Table 4a) was recorded under constant superfusion with bath solution to check for Kv4.3/KChIP2.2 expression and the quality of the individual patch clamp experiment (voltage control). Subsequently, 14 test pulses (series 1; FIG. 1b and Table 4b) were applied at 0.1 Hz under constant superfusion with bath solution. The protocol was initiated by a voltage jump to 100 mV (400 ms) to achieve full inactivation. Then the Kv4.3/KChIP2.2 channels were transferred to the open state by depolarization to +40 mV for 300 milliseconds (activation). Only cells generating current amplitudes between 1 nA and 50 nA were used for the experimental procedure. No or negligible rundown was observed.
Then, 36 test pulses (series 2) were applied at 0.1 Hz under constant superfusion with the compound dissolved in bath solution. Finally, another current-voltage curve was recorded in the presence of the compounds (IV activation 2).
Three different types of analysis were used: Inhibition at the peak current, inhibition of translocated charge and inhibition 75 ms after activation at +40 mV (sustained current). The peak current/charge/current at 75 ms was determined using the online analysis tool of the HEKA pulse software package. […]

[2] abbreviates: remaining current measured after application of the compound and relative to the blank, read-out: Kv4.3 charge in %.
Where [3] appears, read: remaining peak height measured after application of the compound and relative to the blank, read-out: Kv4.3 peak in %.

Like-named read-outs stand apart in the source and are kept apart here. Some results are limits rather than exact numbers.

On to `COc1ccccc1Nc1nc(C)c(C(=O)NCc2ccc(-c3cccs3)cc2)s1` [Compound 103, 2-(2-methoxy-phenylamino)-4-methyl-thiazole-5-carboxylic acid 4-thiophen-2-yl-benzylamide], for which the melting point lay within 195.6 to 198.6 °C. Besides, the remaining activity at 1 µM in data set [1] (setting [2]) was 64%. In addition, the remaining activity at 1 µM in data set [1] (setting [3]) was 89%.

`COc1ccccc1Nc1nc(C)c(C(=O)N2CCC(n3c(=O)[nH]c4ccccc43)CC2)s1` [Compound 170, 1-{1-[2-(2-methoxy-phenylamino)-4-methyl-thiazole-5-carbonyl]-piperidin-4-yl}-1,3-dihydro-benzoimidazol-2-one]: the melting point is greater than 250 °C. The remaining activity at 1 µM in data set [1] (setting [2]) came out at 90%. Moreover, in data set [1] (setting [3]), the remaining activity at 1 µM was found to be 97%. Molecule `COc1ccccc1Nc1nc(C)c(C(=O)N2CCN(Cc3ccccc3)C[C@@H]2Cc2ccccc2)s1` [Compound 125, ((S)-2,4-dibenzyl-piperazin-1-yl)-[2-(2-methoxy-phenylamino)-4-methyl-thiazol-5-yl]-methanone] registered a melting point of 89.3 to 92.5 °C. Also, in data set [1] (setting [2]), the remaining activity at 1 µM was determined as 74%. Further, the remaining activity at 1 µM in data set [1] (setting [3]) is 95%. For `COc1ccccc1Nc1nc(C)c(C(=O)OCc2ccccc2)s1` [Compound 123, 2-(2-methoxy-phenylamino)-4-methyl-thiazole-5-carboxylic acid benzyl ester], in that order: 98.4 to 100 °C, 31% and 72%. In turn, `COc1ccccc1Nc1nc(C)c(C(=O)NCc2ccccc2)s1` [Compound 124, 2-(2-methoxy-phenylamino)-4-methyl-thiazole-5-carboxylic acid benzylamide] returned a melting point of 153.6 to 156.2 °C. Also, in data set [1] (setting [2]), the remaining activity at 1 µM worked out at 90%. Moreover, the remaining activity at 1 µM in data set [1] (setting [3]) amounted to 95%. The molecule `COc1ccccc1Nc1nc(C)c(C(=O)NC(C)c2ccccc2)s1` (stereo not shown) [Compound 130, 2-(2-methoxy-phenylamino)-4-methyl-thiazole-5-carboxylic acid (1-phenyl-ethyl)-amide] gave a melting point of 60.3 to 62.4 °C. Still for that read-out and setting: to `COc1ccc(CNC(=O)c2cnc(Nc3ccccc3OC)[nH]2)c(OC)c1` [Compound 225, 2-(2-methoxy-phenylamino)-3H-imidazole-4-carboxylic acid 2,4-dimethoxy-benzylamide] belongs 134.1 to 136.2 °C.

`COC[C@@H](NC(=O)c1sc(Nc2ccccc2OC)nc1C)c1ccccc1` [Compound 149, 2-(2-methoxy-phenylamino)-4-methyl-thiazole-5-carboxylic acid ((S)-2-methoxy-1-phenyl-ethyl)-amide] showed a melting point of 118.8 to 129.6 °C.

As to `Cc1nc(NC(=O)c2ccc(C(N)=O)cc2)sc1C(=O)N[C@H]1CCC[C@@H]1OCc1ccccc1` [Compound 213, N-[5-((1S,2S)-2-benzyloxy-cyclopentylcarbamoyl)-4-methyl-thiazol-2-yl]-terephthalamide], the melting point is 213.8 to 218.9 °C. Same read-out and setting: to `COc1ccccc1Nc1nc(C)c(C(=O)N2CC=C(c3ccc(F)cc3)CC2)s1` [Compound 163, [4-(4-fluoro-phenyl)-3,6-dihydro-2H-pyridin-1-yl]-[2-(2-methoxy-phenylamino)-4-methyl-thiazol-5-yl]-methanone] belongs 144.4 to 149.2 °C; to `COc1ccccc1Nc1nc(C)c(C(=O)NCc2ccccc2Br)s1` [Compound 146, 2-(2-methoxy-phenylamino)-4-methyl-thiazole-5-carboxylic acid 2-bromo-benzylamide], 159.6 to 164 °C. The same measure, in the same setting: with `COc1ccccc1Nc1nc(C)c(C(=O)Cc2ccccc2)s1` [Compound 79, 1-[2-(2-methoxy-phenylamino)-4-methyl-thiazol-5-yl]-2-phenyl-ethanone] the figure was 131.7 to 140.6 °C; with `COc1ccccc1Nc1nc(C)c(C(=O)NCc2c(C)cc(Cl)cc2Cl)s1` [Compound 220, 2-(2-methoxy-phenylamino)-4-methyl-thiazole-5-carboxylic acid 2,4-dichloro-6-methyl-benzylamide], 142 to 147.7 °C. Regarding `COc1ccccc1Nc1nc(C)c(C(=O)N(Cc2ccccc2)c2ccccc2)s1` [Compound 216, 2-(2-methoxy-phenylamino)-4-methyl-thiazole-5-carboxylic acid benzyl-phenyl-amide], the melting point was in the range of 167.2 to 170 °C. Still for that read-out and setting: to `Cc1nc(NC(=O)c2ccc(C#N)cc2)sc1C(=O)N[C@H]1CCC[C@@H]1OCc1ccccc1` [Compound 181, 2-(4-cyano-benzoylamino)-4-methyl-thiazole-5-carboxylic acid ((1S,2S)-2-benzyloxycyclopent-1-yl) amide] belongs 177.2 to 181.4 °C; to `COc1ccccc1Nc1nc(C)c(C(=O)NC2CCN(Cc3ccccc3)C2)s1` (stereo not shown) [Compound 215, 2-(2-methoxy-phenylamino)-4-methyl-thiazole-5-carboxylic acid (1-benzyl-pyrrolidin-3-yl) amide], 112.6 to 121.6 °C. On the same count and under the same terms, to `CC[C@@H](NC(=O)c1sc(Nc2ccccc2OC)nc1C)c1ccccc1` [Compound 131, 2-(2-methoxy-phenylamino)-4-methyl-thiazole-5-carboxylic acid ((R)-1-phenyl-propyl)-amide] belongs 57.7 to 59.6 °C; to `COc1ccccc1Nc1nc(C)c(C(=O)NCc2ccccc2-c2ccccc2)s1` [Compound 143, 2-(2-methoxy-phenylamino)-4-methyl-thiazole-5-carboxylic acid (biphenyl-2-ylmethyl)-amide], 128.4 to 132 °C; to `COc1ccccc1Nc1nc(C)c(C(=O)NCc2cccc(C)c2)s1` [Compound 141, 2-(2-methoxy-phenylamino)-4-methyl-thiazole-5-carboxylic acid 3-methyl-benzylamide], 148.1 to 149.9 °C. In the case of `CC[C@H](NC(=O)c1sc(Nc2ccccc2OC)nc1C)c1ccccc1` [Compound 132, 2-(2-methoxy-phenylamino)-4-methyl-thiazole-5-carboxylic acid ((S)-1-phenyl-propyl)-amide], the melting point lay within 66.5 to 70.4 °C.

`COc1ccccc1Nc1nc(C)c(C(=O)N2CCCC2c2ccc(F)cc2)s1` (stereo not shown) [Compound 177, [2-(4-fluoro-phenyl)-pyrrolidin-1-yl]-[2-(2-methoxy-phenylamino)-4-methyl-thiazol-5-yl]-methanone] showed a melting point of 94.4 to 106.6 °C.

The record behind these values is patent US20080125432A1 (Devgen NV, priority 2004, published 2008).
